Laboratory results: the supplement of paper PMC10307832

Experiments:
Experiment in all cases: relative viability (nuclei count vs DMSO), 5 days (fraction); higher = more cells survive
AGI-6780 + Foretinib = compound: O=C(Nc1cccc(C(F)(F)F)c1)Nc1cc(S(=O)(=O)NC2CC2)ccc1-c1ccsc1 [AGI-6780] + COc1cc2c(Oc3ccc(NC(=O)C4(C(=O)Nc5ccc(F)cc5)CC4)cc3F)ccnc2cc1OCCCN1CCOCC1 [Foretinib] (partner 0.25 µM)
Procedure, shortened: (§1)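 Relative viability was taken as the ratio of nuclei in treated wells to nuclei in vehicle wells. Lung cancer cell lines in 1536-well plates received compounds by pin tool one day after seeding, either one drug alone or a fixed anchor-drug dose plus five library-drug doses (not always all listed) in √10 steps. Nuclei were counted on 4× images after 5 days of treatment, and values are medians of duplicate plates.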

AGI-6780 + Luminespib = compound: O=C(Nc1cccc(C(F)(F)F)c1)Nc1cc(S(=O)(=O)NC2CC2)ccc1-c1ccsc1 [AGI-6780] + CCNC(=O)c1noc(-c2cc(C(C)C)c(O)cc2O)c1-c1ccc(CN2CCOCC2)cc1 [Luminespib] (partner 0.01 µM)
Procedure, shortened: as §1

AGI-6780 + Tozasertib = compound: O=C(Nc1cccc(C(F)(F)F)c1)Nc1cc(S(=O)(=O)NC2CC2)ccc1-c1ccsc1 [AGI-6780] + Cc1cc(Nc2cc(N3CCN(C)CC3)nc(Sc3ccc(NC(=O)C4CC4)cc3)n2)n[nH]1 [Tozasertib] (partner 0.1 µM)
Procedure, shortened: as §1

AGI-6780 + AZD7762 = compound: O=C(Nc1cccc(C(F)(F)F)c1)Nc1cc(S(=O)(=O)NC2CC2)ccc1-c1ccsc1 [AGI-6780] + NC(=O)Nc1cc(-c2cccc(F)c2)sc1C(=O)N[C@H]1CCCNC1 [AZD7762] (partner 0.2 µM)
Procedure, shortened: as §1

Cell Line	relative viability (AGI-6780 + Foretinib; first compound 0.08 µM)	relative viability (AGI-6780 + Foretinib; first compound 0.253 µM)	relative viability (AGI-6780 + Foretinib; first compound 0.8 µM)	relative viability (AGI-6780 + Foretinib; first compound 2.53 µM)	relative viability (AGI-6780 + Foretinib; first compound 8 µM)	relative viability (AGI-6780 + Luminespib; first compound 0.08 µM)	relative viability (AGI-6780 + Luminespib; first compound 0.253 µM)	relative viability (AGI-6780 + Luminespib; first compound 0.8 µM)	relative viability (AGI-6780 + Luminespib; first compound 2.53 µM)	relative viability (AGI-6780 + Luminespib; first compound 8 µM)	relative viability (AGI-6780 + Tozasertib; first compound 0.08 µM)	relative viability (AGI-6780 + Tozasertib; first compound 0.253 µM)	relative viability (AGI-6780 + Tozasertib; first compound 0.8 µM)	relative viability (AGI-6780 + Tozasertib; first compound 2.53 µM)	relative viability (AGI-6780 + Tozasertib; first compound 8 µM)	relative viability (AGI-6780 + AZD7762; first compound 0.08 µM)	relative viability (AGI-6780 + AZD7762; first compound 0.253 µM)	relative viability (AGI-6780 + AZD7762; first compound 0.8 µM)	relative viability (AGI-6780 + AZD7762; first compound 2.53 µM)	relative viability (AGI-6780 + AZD7762; first compound 8 µM)
NCI-H1437	1.2	1.27	1.21	1.31	1.15	1.21	1.06	1.17	1.22	1.1	0.486	0.42	0.428	0.408	0.391	1.11	1.11	1.28	1.16	1.17
NCI-H1651	0.87	0.824	0.715	0.692	0.796	0.809	0.893	0.919	0.744	0.804	0.785	0.601	0.591	0.429	0.693	0.42	0.495	0.463	0.518	0.434
NCI-H1666	0.945	0.999	0.939	0.929	1.04	1.04	1.03	1.01	0.961	1.06	0.603	0.616	0.611	0.503	0.563	0.809	0.977	0.842	0.926	0.898
NCI-H1734	0.814	0.954	0.83	0.663	0.819	0.216	0.233	0.201	0.19	0.177	0.22	0.294	0.246	0.242	0.268	0.634	0.589	0.618	0.451	0.606
NCI-H1755	0.986	0.975	0.85	0.874	0.905	0.37	0.49	0.518	0.304	0.42	0.664	0.627	0.517	0.436	0.557	0.478	0.417	0.485	0.419	0.435
NCI-H1793	0.729	0.745	0.771	0.555	0.603	0.211	0.162	0.175	0.155	0.207	0.355	0.318	0.351	0.332	0.312	0.747	0.517	0.703	0.36	0.409
NCI-H1915	1.04	1.11	1.09	1.1	1.03	0.781	0.894	0.879	0.698	0.836	0.432	0.418	0.469	0.282	0.428	0.715	0.713	0.729	0.637	0.698
NCI-H1944	1.03	0.885	0.93		0.869	0.814	0.711	0.709		0.768	0.252	0.27	0.247		0.242	0.538	0.516	0.515		0.55
NCI-H1975	0.979	0.944	0.897		0.896	0.259	0.184	0.222	0.263	0.161	0.9	0.819	0.738		0.474	0.662	0.848	0.821	0.653	0.711
NCI-H1993	0.682	0.838	0.851	0.621	0.771	0.747	0.913	0.705	0.642	0.857	0.547	0.588	0.623	0.464	0.536	0.681	1.05	1.01		0.928
NCI-H2085	0.995	0.882	1.05	1.02	0.903	0.409	0.457	0.482	0.347	0.39	0.755	0.736	0.779	0.809	0.61	1.07	1	0.995	1.06	1
NCI-H2087	1.04	1.24	1.17	1.17	1.08	0.203	0.141	0.181	0.155	0.175	0.288	0.213	0.224	0.27	0.284	1.42	1.43	1.34	1.64	1.47
NCI-H2126	1.32	1.09	1.08	1.08	1.18	0.984	0.843	0.95	0.9	0.856	0.82	0.838	0.89	0.726	0.857	1.03	1.08	0.989	0.97	1.08
NCI-H2170	0.994	0.978	1.1	0.928	0.984	0.603	0.729	0.682	0.403	0.719	0.687	0.752	0.665	0.546	0.814	0.803	0.904	0.987		0.827
NCI-H2342	1.11	1.11	1.05	0.978	1.12	0.604	0.68	0.679	0.552	1.09	0.56	0.52	0.593	0.43	0.597	0.47	0.667	0.612	0.499	0.733
NCI-H2347	0.607	0.828	0.831	0.79	1.57	0.456	0.659	0.405	0.411	0.403	0.596	0.644	0.518	0.373	0.644	0.766	0.78	0.538	0.867	0.929
NCI-H2405	1.06	1.01	0.746	1.02	1	0.686	0.718	0.5	0.515	0.65	0.813	0.728	0.565	0.766	0.661		0.725	0.603	0.752	0.658
NCI-H3122	0.971	0.959	1.08	1.03	0.983	0.0953	0.0902	0.113	0.0851	0.0997	0.373	0.398	0.445	0.298	0.389	0.983	1.08	1	0.91	1.05
PC-3 [JPC-3]	1.08	0.986	0.969	1.05	1.01	0.59	0.71	0.727	0.629	0.67	0.943	0.859	0.94	0.858	0.813		0.758	0.984	0.877	0.729
PC-14	0.902	1.1	1.02	0.941	0.979	0.228	0.195	0.171	0.118	0.121	0.57	0.583	0.658	0.582	0.569	0.355	0.33	0.453	0.455	0.397
RERF-LC-KJ	0.871	0.904	0.88	0.597	0.909	1.25	1.17	1.33	1.16	1.17	0.506	0.619	0.461	0.452	0.34	0.853	0.811	1.04	0.777	0.952
SW 900	0.953	0.763	1.03	0.81	0.917	0.167	0.17	0.163	0.185	0.176	0.526	0.52	0.644	0.473	0.512	0.657	0.676	0.811	0.557	0.634
